Laboratory results from ChEMBL document CHEMBL5352470, “RS6077 induces mitotic arrest and selectively activates cell death in human cancer cell lines and in a lymphoma tumor in vivo” (Eur J Med Chem, 2023).
Activity calls are given as the source filed them. The calls are words filed in the database; no cut-off is given here.

How the values were obtained:
Tubulin (Homo sapiens) = Tubulin (Homo sapiens) (UniProt P68371+Q9H4B7+P0DPH7+P68366+Q13509+Q71U36+P04350+Q3ZCM7+P07437+P68363+Q9BQE3+Q6PEY2+Q13885+Q9BVA1+Q9BUF5); assay: Inhibition of [3H]colchicine binding to tubulin (unknown origin) at 1 to 5 uM relative to control; assay type: protein-complex assay; conditions: dose 1-5 µM
AHH-1 [1] = assay: Antiproliferative activity against human AHH-1 cells assessed as inhibition of cell growth measured for 48 hrs by MTT assay; assay type: functional, cell-based; conditions: AHH-1, 48 h
TERT-RPE1 [2] = assay: Antiproliferative activity against human TERT-RPE1 cells assessed as inhibition of cell growth measured for 48 hrs by MTT assay; assay type: functional, cell-based; conditions: RPE-1, 48 h
TERT-RPE1 [3] = assay: Induction of cell cycle arrest in human TERT-RPE1 cells assessed as accumulation of cells at S phase at 100 nM incubated for 72 hrs by annexin V-FITC and PI staining based flow cytometry analysis; assay type: functional
TERT-RPE1 [4] = assay: Induction of cell cycle arrest in human TERT-RPE1 cells assessed as accumulation of cells at G2/M phase at 1000 nM incubated for 72 hrs by annexin V-FITC and PI staining based flow cytometry analysis; assay type: functional
TERT-RPE1 [5] = assay: Induction of cell cycle arrest in human TERT-RPE1 cells assessed as accumulation of cells at G2/M phase at 2500 nM incubated for 72 hrs by annexin V-FITC and PI staining based flow cytometry analysis; assay type: functional
HeLa [6] = assay: Induction of cell cycle arrest in human HeLa cells assessed as accumulation of cells at G1 phase at 100 nM incubated for 72 hrs by annexin V-FITC and PI staining based flow cytometry analysis; assay type: functional
HeLa [7] = assay: Induction of cell cycle arrest in human HeLa cells assessed as accumulation of cells at G1 phase at 2500 nM incubated for 72 hrs by annexin V-FITC and PI staining based flow cytometry analysis; assay type: functional
HeLa [8] = assay: Induction of cell cycle arrest in human HeLa cells assessed as accumulation of cells at S phase at 100 nM incubated for 72 hrs by annexin V-FITC and PI staining based flow cytometry analysis; assay type: functional
HeLa [9] = assay: Induction of cell cycle arrest in human HeLa cells assessed as accumulation of cells at S phase at 1000 nM incubated for 72 hrs by annexin V-FITC and PI staining based flow cytometry analysis; assay type: functional
HeLa [10] = assay: Induction of cell cycle arrest in human HeLa cells assessed as accumulation of cells at S phase at 2500 nM incubated for 72 hrs by annexin V-FITC and PI staining based flow cytometry analysis; assay type: functional
HeLa [11] = assay: Induction of cell cycle arrest in human HeLa cells assessed as accumulation of cells at G2/M phase at 100 nM incubated for 72 hrs by annexin V-FITC and PI staining based flow cytometry analysis; assay type: functional
HeLa [12] = assay: Induction of cell cycle arrest in human HeLa cells assessed as accumulation of cells at G2/M phase at 1000 nM incubated for 72 hrs by annexin V-FITC and PI staining based flow cytometry analysis; assay type: functional
AHH-1 [13] = assay: Induction of cell cycle arrest in human AHH-1 cells assessed as accumulation of cells at G1 phase at 100 nM incubated for 72 hrs by annexin V-FITC and PI staining based flow cytometry analysis; assay type: functional
AHH-1 [14] = assay: Induction of cell cycle arrest in human AHH-1 cells assessed as accumulation of cells at G1 phase at 1000 nM incubated for 72 hrs by annexin V-FITC and PI staining based flow cytometry analysis; assay type: functional
HeLa [15] = assay: Induction of apoptosis in human HeLa cells assessed as viable cells measured after 72 hrs by annexin V-FITC and PI staining based flow cytometry analysis; assay type: functional, cell-based; conditions: dose 100-2500 nM
Farage = assay: Antiproliferative activity against human Farage cells assessed as inhibition of cell growth measured for 72 hrs by MTT assay; assay type: functional, cell-based
KARPAS-422 = assay: Antiproliferative activity against human KARPAS-422 cells assessed as inhibition of cell growth measured for 72 hrs by MTT assay; assay type: functional, cell-based; conditions: KARPAS-422, 72 h
U2932 = assay: Antiproliferative activity against human U2932 cells assessed as inhibition of cell growth measured for 72 hrs by MTT assay; assay type: functional, cell-based; conditions: U2932, 72 h
TMD8 [16] = assay: Antitumor activity against human TMD8 cells xenografted in NOD/SCID mouse assessed as reduction in tumor size at 100 mg/kg, po administered for 5 days; assay type: functional, organism-based; conditions: time 5.0 day
TMD8 [17] = assay: Antitumor activity against human TMD8 cells xenografted in NOD/SCID mouse assessed as reduction in tumor volume at 100 mg/kg, po administered for 5 days and measured on day 6; assay type: functional; conditions: time 6 day
TMD8 [18] = assay: Antitumor activity against human TMD8 cells xenografted in NOD/SCID mouse assessed as reduction in tumor volume at 100 mg/kg, po administered for 5 days and measured on day 13; assay type: functional; conditions: time 13 day
[19] = Metabolic stability in mouse liver microsome assessed as half life measured upto 60 mins by LC-MS/MS analysis; assay type: ADME; conditions: liver microsomes
[20] = Toxicity in human T cells derived from human PBMC assessed as late apoptotic cells at 0.1 uM measured for 48 hrs by annexin V-FITC and PI staining based flow cytometry analysis (reference value: 13.5 to […] %); conditions: t-cell
[21] = Toxicity in human T cells derived from human PBMC assessed as necrotic cells at 1 uM measured for 48 hrs by annexin V-FITC and PI staining based flow cytometry analysis (reference value: 0.31 to 0.48 %); conditions: t-cell
[22] = Toxicity in human T cells derived from human PBMC assessed as early apoptotic cells at 2.5 uM measured for 48 hrs by annexin V-FITC and PI staining based flow cytometry analysis (reference value: 6.75 to 8.22 %); conditions: t-cell
[23] = Toxicity in human T cells derived from human PBMC assessed as late apoptotic cells at 2.5 uM measured for 48 hrs by annexin V-FITC and PI staining based flow cytometry analysis (reference value: 13.5 to […] %); conditions: t-cell
[24] = Toxicity in human T cells derived from human PBMC assessed as necrotic cells at 2.5 uM measured for 48 hrs by annexin V-FITC and PI staining based flow cytometry analysis (reference value: 0.31 to 0.48 %); conditions: t-cell
[25] = Toxicity in human T cells derived from human PBMC assessed as late apoptotic cells at 1 uM measured for 72 hrs by annexin V-FITC and PI staining based flow cytometry analysis (reference value: 11.5 to 17.6%); conditions: t-cell
[26] = Toxicity in human T cells derived from human PBMC assessed as viable cells at 2.5 uM measured for 72 hrs by annexin V-FITC and PI staining based flow cytometry analysis (reference value: 66.5 to 77.5 %); assay type: cell-based, T-cell; conditions: read-out: Activity
[27] = Toxicity in human T cells derived from human PBMC assessed as early apoptotic cells at 2.5 uM measured for 72 hrs by annexin V-FITC and PI staining based flow cytometry analysis (reference value: 9.70 to […]); conditions: t-cell
[28] = Toxicity in human T cells derived from human PBMC assessed as necrotic cells at 2.5 uM measured for 72 hrs by annexin V-FITC and PI staining based flow cytometry analysis (reference value: 0.48 to 0.56 %); conditions: t-cell

Work on `COc1cc(C(=O)c2ccn(-c3ncnc4[nH]ccc34)c2)cc(OC)c1OC` yielded an inhibition (Tubulin (Homo sapiens)) of 85%, an IC50 (AHH-1 [1]) of 16.3 nM and an IC50 (TERT-RPE1 [2]) of 101 nM. The Activity (TERT-RPE1 [3]) was 2.3%, the Activity (TERT-RPE1 [4]) was 82.7% and the Activity (TERT-RPE1 [5]) was 72.7%. It also gave an Activity (HeLa [6]) of 28.5%, an Activity (HeLa [7]) of 17% and an Activity (HeLa [8]) of 43.2%. The Activity (HeLa [9]) was 44.1%, the Activity (HeLa [10]) was 48.7% and the Activity (HeLa [11]) was 28.3%. It also gave an Activity (HeLa [12]) of 33.8%, an Activity (AHH-1 [13]) of 37.1% and an Activity (AHH-1 [14]) of 9.5%. For the same compound, the Activity (HeLa [15]) was “Dose-Dependent Effect”, the IC50 (Farage) was 17.6 nM and the IC50 (KARPAS-422) was 36.3 nM. The IC50 (U2932) was 21 nM, the Activity (TMD8 [16]) was “Active” and the Activity (TMD8 [17]) was 407 mm3. The Activity (TMD8 [18]) was 354 mm3, the half-life [19] was 14.7 min and the Activity [20] was 13.3%. The Activity [21] was 0.24%, the Activity [22] was 7.06% and the Activity [23] was 12.2%. It also gave an Activity [24] of 0.41%, an Activity [25] of 12% and a viability at 72 h, 2.5 µM [26] of 64.3%. It also gave an Activity [27] of 10.3% and an Activity [28] of 0.14%.
